In PMC4559389, “Tumor Detection at 3 Tesla with an Activatable Cell Penetrating Peptide Dendrimer (ACPPD-Gd), a T1 Magnetic Resonance (MR) Molecular Imaging Agent” (PLoS ONE, 2015):
“And” between values parts separate entries of the source, which are not always exact repeats. Equal entries are not always repeated. “Also recorded” adds a separate entry of the source.

How the values were obtained:
Assay type in all cases: in vivo, albino C57BL/6 mice
Py8119 mammary tumor [1] = assay: T1-weighted MR tumor enhancement at 3T in mice with mammary fat pad tumors
Source text: The University of California San Diego Institutional Animal Care and Use Committee (IACUC) approved this research under protocol S04011. All steps were ensured to minimize pain and suffering of all animals during the course of this experiment. Anesthesia during tumor inoculation and MR imaging was isoflurane/O2. All animals were given free access to food and water ad libitum during the entire study. Euthanasia involved CO2 asphyxiation followed by cervical dislocation. Each of the 4 inguinal nipples of 16 albino C57BL/6 (Harlan Labs) mice were randomized such that each mouse had 2 mammary fat pads inoculated with 10^4 Py8119 mammary tumor cells and the other 2 with an equal volume of saline. […]
All mice were imaged on days 4, 9, and 14 after inoculation under isoflurane/O2 anesthesia. […] Optimal ACPPD-Gd dose and imaging time were previously determined. […]
Tumor signal and size were quantified at each time point using region-of-interest (ROI) analysis with OsiriX software (Pixmeo, Geneva). […] Tumors <1mm^3 were not analyzed because of unreliable ROI placement and partial volume effects. A polygonal ROI was traced around the tumor on the fat-saturated T1-weighted axial sequence at its maximal dimension and the average signal and cross-sectional area recorded. […] Tumor volume was calculated using an ellipsoid function as 4/3*(area of tumor ROI)*(1/2)*(maximal orthogonal coronal diameter). […]

Py8119 mammary tumor [2] = assay: Blinded reader tumor detection on 3T MRI (ROC/AUC, inter-observer kappa); details: for AUC (95%CI) of ROC curve for tumor presence, Reader 1 (experienced), all tumors (n = 107) / AUC (95%CI) of ROC curve for tumor presence, Reader 2 (trainee), all tumors (n = 107): 288 breasts, ACPPD-Gd 24 h post, gadobutrol 2–3 min post; for AUC (95%CI) of ROC curve for tumor presence, Reader 1 (experienced), tumors <5mm^3 (n = 58) / AUC (95%CI) of ROC curve for tumor presence, Reader 2 (trainee), tumors <5mm^3 (n = 58): obvious tumors (>5mm^3) removed
Source text: The acquired 72 studies (3 groups x 8 mice x 3 time points) with 4 pulsing sequences each were anonymized and presented at random to 2 observers blinded to contrast grouping, time since inoculation, and which 2 nipples were inoculated with tumor. Reader 1 is an MR expert with extensive experience in clinical and animal MR image interpretation (RFM) and Reader 2 is a 2nd-year radiology resident in training (ESO). Studies were reviewed independently and readers reported whether the breast tissue under each of the 4 nipples in each study was normal or contained tumor along with their confidence level as low, medium, or high. If a tumor was present they described the degree and pattern of tumor enhancement.
Receiver operating characteristic (ROC) curves were constructed using 4 levels: normal, low, medium and high probability for tumor presence. There were 288 breasts evaluated (3 groups x 8 animals x 3 time-points x 4 breasts). […] Additional ROC curves were constructed for tumors <5mm^3 to assess the potential benefit of ACPPD-Gd in detecting small tumors. Interobserver agreement was assessed for all 288 breasts and within each of the 3 contrast groups using the kappa statistic. Area under the ROC curve (AUC) was calculated for the 3 contrast groups using the JROC web-based program.

[3] = Post mortem tissue Gd content by ICP-MS; details: ACPPD-Gd 24 h post, gadobutrol at equilibrium phase
Method: Mice were sacrificed immediately after the 14-day MRI study and tumors, liver, kidneys, and muscle were harvested and immediately frozen at -20°C for later analysis. Tissue Gd content was measured using inductively coupled plasma-mass spectrometry (ICP-MS) on defrosted and weighted tissues. Less than 100mg samples of each tissue were placed in 900uL of nitric acid on a Gyromixer overnight at room temperature. The next day, 200μL of 30% hydrogen peroxide were added, and after 2 hours the samples were heated to 90–100°C for 2 hours. Tuning solution was then added to a 5mL total volume. Samples were then run in an Agilent Technologies 7700 Series ICP-MS to measure gadolinium content in parts-per-billion. Tissue Gd concentration in micromolar was calculated as (ppb of Gd/Gd molecular weight)*(total weight of solution measured/tissue wet weight).

Gd biodistribution: organ of dominant accumulation ([3]; ICP-MS of tumors, liver, kidneys, muscle): the majority of Gd was in the kidneys
Tumor to muscle Gd concentration ratio ([3]; ICP-MS, 14 days after inoculation, mean±SD): 2.7 ± 1.0
SMILES: O=C([O-])CN1CCN(CC(=O)[O-])CCN([C@H](CO)[C@H](O)CO)CCN(CC(=O)[O-])CC1.[Gd+3] (racemic) [gadobutrol, Gd-DO3A-butrol]
Pattern of tumor enhancement (Py8119 mammary tumor [1]; 3T axial fat-saturated T1w images): more apparent at the tumor periphery; also recorded: enhanced predominantly the tumor rim
T1w tumor enhancement, small tumors (1-5mm^3) (Py8119 mammary tumor [1]; 3T, ACPPD-Gd 24 h after 0.036 mmol Gd/kg, gadobutrol 2–3 min after 0.1 mmol/kg, mean±SD, p = 0.03): 19±18%
AUC (95%CI) of ROC curve for tumor presence, Reader 1 (experienced), all tumors (n = 107) (Py8119 mammary tumor [2]): 0.91 and 0.92
AUC (95%CI) of ROC curve for tumor presence, Reader 2 (trainee), all tumors (n = 107) (Py8119 mammary tumor [2]): 0.81
AUC (95%CI) of ROC curve for tumor presence, Reader 1 (experienced), all tumors (n = 107) (Py8119 mammary tumor [2]; listed as Gadobutrol): 0.92 (0.86, 0.98)
AUC (95%CI) of ROC curve for tumor presence, Reader 2 (trainee), all tumors (n = 107) (Py8119 mammary tumor [2]; listed as Gadobutrol): 0.81 (0.73, 0.90)
AUC (95%CI) of ROC curve for tumor presence, Reader 1 (experienced), tumors <5mm^3 (n = 58) (Py8119 mammary tumor [2]): 0.86
AUC (95%CI) of ROC curve for tumor presence, Reader 2 (trainee), tumors <5mm^3 (n = 58) (Py8119 mammary tumor [2]): 0.69
AUC (95%CI) of ROC curve for tumor presence, Reader 1 (experienced), tumors <5mm^3 (n = 58) (Py8119 mammary tumor [2]; listed as Gadobutrol): 0.86 (0.75, 0.96)
AUC (95%CI) of ROC curve for tumor presence, Reader 2 (trainee), tumors <5mm^3 (n = 58) (Py8119 mammary tumor [2]; listed as Gadobutrol): 0.69 (0.57, 0.81)
